For orientation: IC50 means the midpoint of a concentration-inhibition curve. The low end stands for greater potency in that assay, the high end for weaker potency in that assay.

In one assay the target is T1, Keap1/NRF2 (Homo sapiens, UniProt Q14145).
T1 construct: Keap1 (321-609) is diluted to 40 nM (2×) in 1× assay buffer
Description: NRF2-Keap1 FP Assay (Kelch domain (321-609) of Keap1, TAMRA-labeled NRF2 ETGE peptide). The conditions noted are these: Keap1 (321-609) 20 nM, Tamra labeled peptide 8 nM. In kind it is binding. The gist of the method:
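Fluorescence polarization competition: Keap1 Kelch (321-609) at 20 nM final and TAMRA-ETGE 16-mer peptide at 8 nM final with 3-fold compound dilutions, 1 h room temperature in Tris pH 8.0 buffer (NaCl, MgCl2, DTT, CHAPS, BSA). mP normalized to protein+peptide and peptide-alone controls; pIC50 by four-parameter fit.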

The next assay addresses T2, NRF2/Keap1 (Homo sapiens, UniProt Q14145).
T2 construct: full length NRF2 protein and full length Keap1 protein (Keap1 exists a dimer) are used
Kind of assay: NRF2-Keap1 TR-FRET Low Protein Assay (full length NRF2 and full length Keap1). It counts as binding. The conditions noted are these: low protein: 1.25 nM Keap1 FlagHis, 2.5 nM biotin-NRF2 added. An excerpt: In the NRF2-Keap1 TR-FRET (time-resolved fluorescence resonance energy transfer) low protein assay, full length NRF2 protein and full length Keap1 protein (Keap1 exists a dimer) are used. The assay detects a compound's ability to displace the binding of Keap1 FlagHis with biotinylated Avi-NRF2 protein. Biotin-NRF2 binds to streptavidin-europium (a component of the detection mix) and Keap1 FlagHis is recognized by anti-Flag APC (allophycocyanin) antibody (also a component of the detection mix). If binding occurs between the two proteins, there will be an energy transfer from the Eu+3 (donor) at 615 nm to the APC (acceptor) at 665 nm. A potential NRF2 inhibitor will cause a reduction in the TR-FRET signal by interfering with the binding of Keap1 to NRF2.
Ten nanoliters of 100× compound dose response curves (serial 3-fold dilutions) in DMSO are stamped using an Echo liquid handling system (Labcyte) into 384-well, low volume, black assay plates (Greiner, #784076), with DMSO in columns 6 and 18. An additional 90 nl DMSO is added to each well, to bring the total volume to 100 nl per well. The top concentration of compound is located in columns 1 and 13, with the serial dilutions going across the row. All reagents are diluted in assay buffer (50 mM Tris, pH 8.0, 5 mM MgCl2, 100 mM NaCl, 0.005% BSA, 1 mM DTT, and 2 mM CHAPS. The BSA, DTT, and CHAPS are added to the assay buffer on the day of assay. Using a Multidrop Combi (Thermo Electron Corporation) equipped with a metal tip dispenser, 5 ul of 1.25 nM Keap1 FlagHis protein is added to all wells of the compound plate, with the exception of the wells in column 18. Wells in column 18 receive 5 ul of assay buffer instead. Plates are centrifuged at 500 rpm for 1 minute, covered with a plate lid, and incubated at 37° C. for 2.25 hours. Plates are then removed from the incubator and allowed to cool to RT for 15 minutes. Five microliters of 2.5 nM biotin-NRF2 protein is then added to all wells of the plates and the plates are spun at 500 rpm for 1 minute, followed by incubating at 4° C. for 1.25 hours. The plates are then allowed to warm to RT for 15 minutes, followed by the addition of 10 ul of detection mix (1 nM Streptavidin Eu+ W1024 and 5 ug/ml mouse anti-DYKDDDDK IgG conjugated to SureLight APC antibody; both from Columbia Biosciences) to all wells. Plates are spun at 500 rpm for 1 minute, incubated for 1 hour at RT, and read on an Envision plate reader using a 320 nm excitation filter and 615 nm and 665 nm emission filters. Compound response (% inhibition) and potency (pIC50) are calculated based on the ratio of the two emissions (665 nm/615 nm) and then the transformed data is normalized against controls in the assay (control 1=1% DMSO in the presence of NRF2 and Keap1 protein and control 2=1% DMSO in the presence of only the NRF2 protein). Data analysis is handled using the software package Abase XE (Surrey, United Kingdom). The % inhibition values are calculated from the ratio (transformed) data by the equation: 100−(100*(compound response-average control 2)/(average control 1−average control 2)). For calculation of pIC50s, Abase XE uses a four parameter equation.
On the technique in general: In TR-FRET formats the signal depends on donor and acceptor labels being close together.

T2 sequence (Q14145 whole entry): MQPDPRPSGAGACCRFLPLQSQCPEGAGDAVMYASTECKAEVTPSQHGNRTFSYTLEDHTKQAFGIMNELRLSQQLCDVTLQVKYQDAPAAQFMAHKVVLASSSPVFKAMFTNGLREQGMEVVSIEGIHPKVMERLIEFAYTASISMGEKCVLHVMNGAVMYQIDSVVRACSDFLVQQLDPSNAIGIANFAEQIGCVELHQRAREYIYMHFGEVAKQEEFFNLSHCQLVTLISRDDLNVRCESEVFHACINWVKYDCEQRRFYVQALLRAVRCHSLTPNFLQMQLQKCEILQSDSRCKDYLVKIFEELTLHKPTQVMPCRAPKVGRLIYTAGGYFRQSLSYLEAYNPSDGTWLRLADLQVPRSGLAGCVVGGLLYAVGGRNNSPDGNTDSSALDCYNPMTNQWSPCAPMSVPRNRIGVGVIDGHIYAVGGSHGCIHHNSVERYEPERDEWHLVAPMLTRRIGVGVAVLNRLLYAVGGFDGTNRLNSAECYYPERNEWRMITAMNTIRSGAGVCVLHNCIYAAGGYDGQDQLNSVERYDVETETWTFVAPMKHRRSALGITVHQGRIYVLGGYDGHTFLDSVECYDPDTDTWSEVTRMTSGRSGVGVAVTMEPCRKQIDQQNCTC
T1 sequence (Q14145 321-609): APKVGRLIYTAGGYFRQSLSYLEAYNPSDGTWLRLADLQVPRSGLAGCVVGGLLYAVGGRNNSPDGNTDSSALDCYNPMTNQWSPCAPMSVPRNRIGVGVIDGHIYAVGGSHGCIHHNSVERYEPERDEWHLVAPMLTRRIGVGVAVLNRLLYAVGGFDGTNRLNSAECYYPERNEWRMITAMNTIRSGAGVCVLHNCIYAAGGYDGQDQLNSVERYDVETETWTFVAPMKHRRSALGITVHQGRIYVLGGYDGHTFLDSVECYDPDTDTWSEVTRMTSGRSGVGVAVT

On to `CCCCC1CCCN1C(=O)C1CCCC(c2cccc(-n3ncc(C(=O)O)c3C3CC3)c2)C1` (racemic) [Example 8c, 1-{3-[3-(2-Butylpyrrolidine-1-carbonyl)cyclohexyl]phenyl}-5-cyclopropyl-1H-pyrazole-4-carboxylic Acid], for which the 50% inhibitory concentration (IC50) on Keap1/NRF2 and on NRF2/Keap1 was 10 to 100 nM throughout.
Turning to `CC(C)CCC1CCCN1C(=O)C1CCCC(c2cccc(-n3ncc(C(=O)O)c3C3CC3)c2)C1` (racemic) [Example 11, 5-Cyclopropyl-1-(3-{3-[2-(3-methylbutyl)pyrrolidine-1-carbonyl]cyclohexyl}phenyl)-1H-pyrazole-4-carboxylic Acid], the IC50 at Keap1/NRF2 and against NRF2/Keap1 was 10 to 100 nM in each case.
Regarding `O=C(O)c1cnn(-c2cccc(C3CCCC(C(=O)N4CCCC4C4CC4)C3)c2)c1C1CC1` (racemic) [Example 12, 5-cyclopropyl-1-{3-[3-(2-cyclopropylpyrrolidine-1-carbonyl)cyclohexyl]phenyl}-1H-pyrazole-4-carboxylic Acid], the IC50 at Keap1/NRF2 and on NRF2/Keap1 was 10 to 100 nM in each case.
For `CC1(C)CCc2cnn([C@@H]3CCC[C@@H](c4cccc(-n5ncc(C(=O)O)c5C5CC5)c4)C3)c21` (racemic) [Example 23, 5-Cyclopropyl-1-(3-(t-3-(6,6-dimethyl-5,6-dihydrocyclopenta[c]pyrazol-1(4H)-yl)cyclohexyl)phenyl)-1H-pyrazole-4-carboxylic Acid], the half-inhibitory concentration (IC50) against Keap1/NRF2 and against NRF2/Keap1 was 1000 to 10000 nM in each case.
Regarding `CCOC[C@@H]1CCCN1C(=O)C1CCCC(c2cccc(-n3ncc(C(=O)O)c3C3CC3)c2)C1` (single isomer, unassigned) [Example 18g], the 50% inhibitory concentration (IC50) on Keap1/NRF2 was 10 to 100 nM; at NRF2/Keap1, less than 10 nM.
Consider `CCCC[C@@H]1CCCN1C(=O)[C@H]1CCC[C@@H](c2cccc(-n3ncc(C(=O)O)c3C3CC3)c2)C1` [Example 17f, 1-{3-[(1R,3S)-3-[(2R)-2-Butylpyrrolidine-1-carbonyl]cyclohexyl]phenyl}-5-cyclopropyl-1H-pyrazole-4-carboxylic Acid], for which the concentration for half-maximal inhibition (IC50) at Keap1/NRF2 was 10 to 100 nM; at NRF2/Keap1, less than 10 nM.
For `O=C(O)c1cnn(-c2cccc(C3=CC(C(=O)N4CCCCCC4)CCC3)c2)c1C1CC1` (stereo not drawn) [Example 19, 1-(5′-(Azepane-1-carbonyl)-2′,3′,4′,5′-tetrahydro-[1,1′-biphenyl]-3-yl)-5-cyclopropyl-1H-pyrazole-4-carboxylic Acid], in that order: 100 to 1000 nM and 100 to 1000 nM.
For the compound `CCCCC1CCc2cnn([C@@H]3CCC[C@@H](c4cccc(-n5ncc(C(=O)O)c5C5CC5)c4)C3)c21` (stereo partly drawn) [Example 38, 1-(3-((1,3-trans)-3-(6-Butyl-5,6-dihydrocyclopenta[c]pyrazol-1(4H)-yl)cyclohexyl)phenyl)-5-cyclopropyl-1H-pyrazole-4-carboxylic Acid], the IC50 at Keap1/NRF2 lay within 1000 to 10000 nM; on NRF2/Keap1, 10000 to 100000 nM.
For `Cn1cc(C2CC2c2c(C(=O)O)cnn2-c2cccc([C@@H]3CCC[C@H](n4ncc5c4C(C)(C)CC5)C3)c2)nn1` (stereo partly drawn) [Example 39, 1-(3-((1R,3S)-3-(6,6-Dimethyl-5,6-dihydrocyclopenta[c]pyrazol-1(4H)-yl)cyclohexyl)phenyl)-5-(2-(1-methyl-1H-1,2,3-triazol-4-yl)cyclopropyl)-1H-pyrazole-4-carboxylic Acid], in that order: 10 to 100 nM and less than 10 nM.
In the case of `Cn1cc(C2CC2c2c(C(=O)O)cnn2-c2cccc([C@H]3CCC[C@H](n4ncc5c4C(C)(C)CC5)C3)c2)nn1` (stereo partly drawn) [Example 40, 1-(3-((1,3-trans)-3-(6,6-Dimethyl-5,6-dihydrocyclopenta[c]pyrazol-1(4H)-yl)cyclohexyl)phenyl)-5-(2-(1-methyl-1H-1,2,3-triazol-4-yl)cyclopropyl)-1H-pyrazole-4-carboxylic Acid], the half-inhibitory concentration (IC50) at Keap1/NRF2 and against NRF2/Keap1 was 10 to 100 nM throughout.
As to `CCCCC1CCCC1N(C)C(=O)C1CCCC(c2cccc(-n3ncc(C(=O)O)c3C3CC3)c2)C1` (stereo not drawn) [Example 41, 1-(3-(3-((2-Butylcyclopentyl)(methyl)carbamoyl)cyclohexyl)phenyl)-5-cyclopropyl-1H-pyrazole-4-carboxylic Acid], the IC50 at Keap1/NRF2 and on NRF2/Keap1 was 100 to 1000 nM throughout.
As to `CCCCC1CCCN1C(=O)C1CCCC(c2cccc(-n3ncc(C(=O)O)c3C3CC3c3cn(C)nn3)c2)C1` (stereo not drawn) [Example 42, 1-(3-(3-(2-Butylpyrrolidine-1-carbonyl)cyclohexyl)phenyl)-5-(2-(1-methyl-1H-1,2,3-triazol-4-yl)cyclopropyl)-1H-pyrazole-4-carboxylic Acid], the concentration for half-maximal inhibition (IC50) is 10 to 100 nM against Keap1/NRF2 and less than 10 nM on NRF2/Keap1.

The values above are taken from US10351530B2, “Arylcyclohexyl pyrazoles as NRF2 regulators” (GlaxoSmithKline Intellectual Property Development Limited, priority 2015, dated 2019).
